# Assay results published in patent publication US11186564B2, “Dual NAV1.2/5HT2a inhibitors for treating CNS disorders” (Sunovion Pharmaceuticals Inc., priority 2016, dated 2021).
# What was measured:
# [1] = molecular target: T1, recombinant human serotonin receptor 5-HT2A (Homo sapiens, UniProt P28223); assay: 5-HT2A antagonist Ca2+ assay in CHO-K1 cells (method A aequorin luminescence / method B FLIPR fluorescence); assay type: cell-based; settings: antagonist mode vs EC80 of reference agonist, method A or B, read-out: 5HT2A IC50
# T1 construct: expressed in transfected cells; method B: loaded with Ca2+ dye
# T1 sequence (P28223 whole entry): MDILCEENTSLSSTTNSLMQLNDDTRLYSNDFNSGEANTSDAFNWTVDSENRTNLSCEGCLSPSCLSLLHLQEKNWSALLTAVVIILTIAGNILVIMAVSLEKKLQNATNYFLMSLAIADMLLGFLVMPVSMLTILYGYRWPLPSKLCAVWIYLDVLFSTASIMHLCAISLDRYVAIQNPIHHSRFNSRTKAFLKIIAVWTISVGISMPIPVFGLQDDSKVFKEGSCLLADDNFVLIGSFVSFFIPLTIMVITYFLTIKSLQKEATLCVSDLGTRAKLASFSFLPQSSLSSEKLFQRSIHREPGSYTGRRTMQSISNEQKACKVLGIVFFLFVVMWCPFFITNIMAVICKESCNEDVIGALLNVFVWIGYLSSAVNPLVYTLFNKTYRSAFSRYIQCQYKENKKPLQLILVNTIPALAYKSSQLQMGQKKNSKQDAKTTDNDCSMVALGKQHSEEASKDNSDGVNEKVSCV
# How it was run: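 Method A: CHO-K1 cells co-expressing human 5-HT2A and mitochondrial apoaequorin were given reference agonist at EC80 15 min after compound, with luminescence read. Method B: dye-loaded 5-HT2A CHO-K1 cells were pretreated with compound, then given serotonin at EC80, with FLIPR fluorescence read. IC50s came from nonlinear fits of percent inhibition.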
# [2] = molecular target: human sodium channel NaV1.2 (Homo sapiens, UniProt Q99250); assay: NaV1.2 inhibition, automated patch-clamp (Q-Patch HTX), slow inactivated state (state C); assay type: cell-based; settings: hNaV1.2 CHO cells, slow inactivated state; for IC50: read-out: NaV1.2 IC50; for inhibition at 1 µM: 1 μM compound, read-out: NaV1.2 (% inh), 1 μM; for inhibition at 10 µM: 10 μM compound, read-out: NaV1.2 (% inh), 10 μM
# Sequence of human sodium channel NaV1.2 (Q99250 whole entry): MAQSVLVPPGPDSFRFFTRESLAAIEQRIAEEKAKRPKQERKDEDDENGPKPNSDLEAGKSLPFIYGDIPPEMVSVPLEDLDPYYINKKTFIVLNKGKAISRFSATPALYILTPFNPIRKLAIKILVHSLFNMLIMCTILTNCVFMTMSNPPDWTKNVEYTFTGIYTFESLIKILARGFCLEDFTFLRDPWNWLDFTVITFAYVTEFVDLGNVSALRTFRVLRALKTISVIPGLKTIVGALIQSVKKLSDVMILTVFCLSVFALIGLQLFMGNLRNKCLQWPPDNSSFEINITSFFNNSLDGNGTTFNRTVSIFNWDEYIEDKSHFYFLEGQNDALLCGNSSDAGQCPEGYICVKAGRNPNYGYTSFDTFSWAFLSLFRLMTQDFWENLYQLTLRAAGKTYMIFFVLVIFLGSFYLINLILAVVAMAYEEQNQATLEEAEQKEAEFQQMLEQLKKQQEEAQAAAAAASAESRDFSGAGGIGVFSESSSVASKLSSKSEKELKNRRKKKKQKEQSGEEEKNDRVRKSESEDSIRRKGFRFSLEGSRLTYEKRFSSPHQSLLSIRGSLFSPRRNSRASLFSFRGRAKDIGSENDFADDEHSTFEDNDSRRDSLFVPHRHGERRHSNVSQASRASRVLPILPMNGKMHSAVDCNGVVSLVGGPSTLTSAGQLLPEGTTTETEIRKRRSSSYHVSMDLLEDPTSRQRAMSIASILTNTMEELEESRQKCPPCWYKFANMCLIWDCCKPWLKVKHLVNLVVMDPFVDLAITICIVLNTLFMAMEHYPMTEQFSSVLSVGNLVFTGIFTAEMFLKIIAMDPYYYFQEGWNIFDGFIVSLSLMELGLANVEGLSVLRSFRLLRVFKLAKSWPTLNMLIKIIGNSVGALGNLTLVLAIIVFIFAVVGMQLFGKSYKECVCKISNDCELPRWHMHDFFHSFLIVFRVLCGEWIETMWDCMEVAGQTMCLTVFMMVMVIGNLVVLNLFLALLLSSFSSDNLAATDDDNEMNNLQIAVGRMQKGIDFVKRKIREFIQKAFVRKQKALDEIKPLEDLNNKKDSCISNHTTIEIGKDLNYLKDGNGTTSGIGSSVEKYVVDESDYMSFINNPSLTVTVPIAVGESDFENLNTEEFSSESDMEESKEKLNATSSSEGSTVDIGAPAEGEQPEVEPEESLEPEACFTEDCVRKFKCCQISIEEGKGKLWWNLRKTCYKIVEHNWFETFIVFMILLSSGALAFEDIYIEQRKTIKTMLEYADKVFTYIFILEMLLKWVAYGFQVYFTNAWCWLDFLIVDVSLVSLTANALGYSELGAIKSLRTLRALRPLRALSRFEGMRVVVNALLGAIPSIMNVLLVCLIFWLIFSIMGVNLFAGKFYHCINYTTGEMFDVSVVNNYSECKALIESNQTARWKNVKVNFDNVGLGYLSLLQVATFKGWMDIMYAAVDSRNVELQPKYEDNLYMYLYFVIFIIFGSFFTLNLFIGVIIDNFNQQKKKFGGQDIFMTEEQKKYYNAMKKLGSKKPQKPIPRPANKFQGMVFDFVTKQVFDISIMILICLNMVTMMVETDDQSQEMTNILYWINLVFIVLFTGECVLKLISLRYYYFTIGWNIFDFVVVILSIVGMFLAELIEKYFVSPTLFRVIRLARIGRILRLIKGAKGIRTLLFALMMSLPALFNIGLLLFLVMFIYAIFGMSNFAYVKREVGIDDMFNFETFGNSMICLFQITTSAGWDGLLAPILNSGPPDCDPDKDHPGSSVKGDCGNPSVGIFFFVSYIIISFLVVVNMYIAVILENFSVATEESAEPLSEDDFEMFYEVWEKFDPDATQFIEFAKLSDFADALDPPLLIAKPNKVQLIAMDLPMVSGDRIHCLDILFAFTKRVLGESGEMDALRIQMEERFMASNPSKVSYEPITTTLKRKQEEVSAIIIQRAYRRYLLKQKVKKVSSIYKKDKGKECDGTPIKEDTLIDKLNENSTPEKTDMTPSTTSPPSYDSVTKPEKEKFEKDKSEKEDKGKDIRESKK
# How it was run: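 CHO K-1 cells stably expressing human NaV1.2, whole-cell automated patch clamp, holding −100 mV; slow-inactivated state (state C) read at a 5 ms step to 0 mV after 10 s at −50 mV and 15 ms at −90 mV. Percent inhibition vs vehicle; IC50 by nonlinear least-squares fit.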
inhibition at 1 µM [2] [%],inhibition at 10 µM [2] [%],Compound,IC50 [1] [nM],IC50 [2] [nM]
–,–,"c1ccc(OCCN2CCN(c3nsc4ccccc34)CC2)cc1 [Example 70, 3-(4-(2-phenoxyethyl)piperazin-1-yl)benzo[d]isothiazole]",4,1700
–,–,"COc1ccc2c(c1)C(CN1CCC(NS(=O)(=O)c3ccc(F)cc3)CC1)CC2 (stereo not shown) [Example 250, 4-fluoro-N-(1-((6-methoxy-2,3-dihydro-1H-inden-1-yl)methyl)piperidin-4-yl)benzenesulfonamide]",70,200
-1,–,"CC1(C)Oc2ccccc2C1CN1CCC(Oc2ccccc2)CC1 (stereo not shown) [Example 131, 1-((2,2-dimethyl-2,3-dihydrobenzofuran-3-yl)methyl)-4-phenoxypiperidine]",290,–
32,–,"O=C1c2ccc(F)cc2CN1CCN1CCC(Oc2ccc(F)cc2)CC1 [Example 188, 5-fluoro-2-(2-(4-(4-fluorophenoxy)piperidin-1-yl)ethyl)isoindolin-1-one]",50,–
4,–,"O=C1c2ccccc2CCN1CCN1C[C@@H]2C[C@H]1CN2c1ccccc1 [Example 304, 2-(2-((1S,4S)-5-phenyl-2,5-diazabicyclo[2.2.1]heptan-2-yl)ethyl)-3,4-dihydroisoquinolin-1(2H)-one]",7050,–
–,–,"Cc1cccc(N2CCN(CC3(O)COCc4ccccc43)CC2)c1C (stereo not shown) [Example 56, 4-((4-(2,3-dimethylphenyl)piperazin-1-yl)methyl)isochroman-4-ol]",130,430
56,–,"CN1CCN(CC2CCc3ccccc32)CC1COc1ccc(F)cc1 (stereo not shown) [Example 270, 4-((2,3-dihydro-1H-inden-1-yl)methyl)-2-((4-fluorophenoxy)methyl)-1-methylpiperazine]",110,–
–,47,"N#Cc1cccc(OC2CCN(CCN3CCc4ccccc4C3=O)CC2)c1 [Example 197, 3-((1-(2-(1-oxo-3,4-dihydroisoquinolin-2(1H)-yl)ethyl)piperidin-4-yl)oxy)benzonitrile]",1250,–
–,–,"COc1ccc2c(c1)C(CN1CCC(Oc3ccccc3)CC1)CC2 (stereo not shown) [Example 107, 1-((6-methoxy-2,3-dihydro-1H-inden-1-yl)methyl)-4-phenoxypiperidine]",4,1990
71,–,"CC(C1CCc2ccccc21)N1CCC(Oc2ccc(F)cc2)CC1 (stereo not shown) [Example 123, 1-(1-(2,3-dihydro-1H-inden-1-yl)ethyl)-4-(4-fluorophenoxy)piperidine]",440,–
–,–,"CC(=O)Nc1ccc(OCC(O)CN2CCN(c3ccc(C)c(Cl)c3)CC2)cc1 (stereo not shown) [Example 90, N-(4-(3-(4-(3-chloro-4-methylphenyl)piperazin-1-yl)-2-hydroxypropoxy)phenyl)acetamide]",10,59500
31,–,"CN1CCN(CC2CCc3ccccc32)CC(Oc2ccc(F)cc2)C1 (stereo not shown) [Example 277, 1-((2,3-dihydro-1H-inden-1-yl)methyl)-6-(4-fluorophenoxy)-4-methyl-1,4-diazepane]",100,–
25,–,"O=C1CCc2ccccc2N1CCN1CCC(Oc2ccc(F)cc2)CC1 [Example 190, 1-(2-(4-(4-fluorophenoxy)piperidin-1-yl)ethyl)-3,4-dihydroquinolin-2(1H)-one]",10,–
11,–,"O=C1Nc2ccccc2CC12CCN(C[C@@H](O)COc1ccccc1)CC2 [Example 446, (R)-1-(2-hydroxy-3-phenoxypropyl)-1′,4′-dihydro-2′H-spiro[piperidine-4,3′-quinolin]-2′-one]",610,–
–,46,"COCc1cccc(OC2CCN(CCN3CCCc4ccccc4C3=O)CC2)c1 [Example 206, 2-(2-(4-(3-(methoxymethyl)phenoxy)piperidin-1-yl)ethyl)-2,3,4,5-tetrahydro-1H-benzo[c]azepin-1-one]",> 1300,–
–,38,"O=C1c2cccnc2CCN1CCN1CCC(Oc2ccc(F)cc2)CC1 [Example 207, 6-(2-(4-(4-fluorophenoxy)piperidin-1-yl)ethyl)-7,8-dihydro-1,6-naphthyridin-5(6H)-one]",30,–
29,–,"c1ccc2c(c1)CCC1(CCN(CC3CCc4ccccc43)C1)O2 (stereo not shown) [Example 387, 1′-((2,3-dihydro-1H-inden-1-yl)methyl)spiro[chromane-2,3′-pyrrolidine]]",30,–
–,–,"Fc1ccc(OC2CCN(CCC3Cc4ccccc4C3)CC2)cc1 [Example 178, 1-(2-(2,3-dihydro-1H-inden-2-yl)ethyl)-4-(4-fluorophenoxy)piperidine]",30,1900
5,–,"Fc1ccc(OC2CCN(CCC3CCOCC3)CC2)cc1 [Example 170, 4-(4-fluorophenoxy)-1-(2-(tetrahydro-2H-pyran-4-yl)ethyl)piperidine]",1110,–

inhibition at 1 µM [2] [%],inhibition at 10 µM [2] [%],Compound,IC50 [1] [nM],IC50 [2] [nM]
–,–,"Cc1cccc(N2CCN(CC(O)COC3(C)COc4ccccc43)CC2)c1C (stereo not shown) [Example 81, 1-(4-(2,3-dimethylphenyl)piperazin-1-yl)-3-((3-methyl-2,3-dihydrobenzofuran-3-yl)oxy)propan-2-ol]",30,160
–,–,"OC(CO[C@H]1CCc2ccccc21)CN1CCC(Oc2ccc(F)cc2)CC1 (stereo partly drawn) [Example 235, 1-(((S)-2,3-dihydro-1H-inden-1-yl)oxy)-3-(4-(4-fluorophenoxy)piperidin-1-yl)propan-2-ol]",190,340
–,48,"COc1ccc2c(c1)CCCN(CCN1CCC(Oc3ccc(F)cc3)CC1)C2=O [Example 212, 2-(2-(4-(4-fluorophenoxy)piperidin-1-yl)ethyl)-7-methoxy-2,3,4,5-tetrahydro-1H-benzo[c]azepin-1-one]",10,–
–,–,"c1ccc2c(c1)CCC1(CCN(CCC3CCc4ccccc43)CC1)O2 (stereo not shown) [Example 418, 1′-(2-(2,3-dihydro-1H-inden-1-yl)ethyl)spiro[chromane-2,4′-piperidine]]",160,1130
–,76,"c1ccc(OC2CCN(CCOc3ccc4cccnc4c3)CC2)cc1 [Example 232, 7-(2-(4-phenoxypiperidin-1-yl)ethoxy)quinoline]",220,–
–,60,"OC(COC1CCCCC1)CN1C[C@@H]2C[C@H]1CN2c1ccccc1 (stereo partly drawn) [Example 306, 1-(cyclohexyloxy)-3-((1S,4S)-5-phenyl-2,5-diazabicyclo[2.2.1]heptan-2-yl)propan-2-ol]",1660,–
–,–,"c1ccc(O[C@@H]2COC3(C2)CN(C[C@@H]2CCc4ccccc42)C3)cc1 (single isomer, unassigned) [Compound 364]",80,690
–,–,"c1ccc(O[C@H]2COC3(C2)CN(C[C@@H]2CCc4ccccc42)C3)cc1 (single isomer, unassigned) [Compound 367]",280,390
–,–,c1ccc2c(c1)CCC1(CCN(CCO[C@H]3CCc4ccccc43)CC1)O2 [Example 432],150,360
–,–,"O=C1c2ccccc2CCN1CCN1CCC(Oc2cccc(Cl)c2)CC1 [Example 194, 2-(2-(4-(3-chlorophenoxy)piperidin-1-yl)ethyl)-3,4-dihydroisoquinolin-1(2H)-one]",110,230
23,–,"c1ccc(CC2CN(CC3CCc4ccccc43)CCO2)cc1 (stereo not shown) [Example 251, 2-benzyl-4-((2,3-dihydro-1H-inden-1-yl)methyl)morpholine]",370,–
25,–,"O=C(CN1CCC(Oc2ccc(F)cc2)CC1)C1CCc2ccccc21 (stereo not shown) [Example 215, 1-(2,3-dihydro-1H-inden-1-yl)-2-(4-(4-fluorophenoxy)piperidin-1-yl)ethan-1-one]",190,–
–,–,"c1ccc(O[C@H]2COC3(C2)CN(C[C@H]2CCc4ccccc42)C3)cc1 (single isomer, unassigned) [Compound 365]",220,2180
–,–,"Cc1ccc(N2CCN(C[C@@H](O)COC3CCCCC3)CC2)cc1 [Example 78, (R)-1-(cyclohexyloxy)-3-(4-(p-tolyl)piperazin-1-yl)propan-2-ol]",> 10000,4660
–,–,"c1ccc(O[C@@H]2COC3(CCN(C[C@@H]4CCc5ccccc54)CC3)C2)cc1 (single isomer, unassigned) [Compound 383]",340,110
–,–,"Fc1ccc(OC2COCCN(CC3CCc4ccccc43)C2)cc1 (stereo not shown) [Example 276, 4-((2,3-dihydro-1H-inden-1-yl)methyl)-6-(4-fluorophenoxy)-1,4-oxazepane]",400,440
–,–,"CCC(=O)c1ccc(OCC(O)CN2CCN(c3ccccc3)CC2)cc1 (stereo not shown) [Example 88, 1-(4-(2-hydroxy-3-(4-phenylpiperazin-1-yl)propoxy)phenyl)propan-1-one]",580,31200
–,–,"O[C@@H](COC1CCCCC1)CN1CC2(CC(c3ccccc3)CO2)C1 (stereo partly drawn) [Example 361, (2R)-1-(cyclohexyloxy)-3-(7-phenyl-5-oxa-2-azaspiro[3.4]octan-2-yl)propan-2-ol]",20,2710

Compound,inhibition at 1 µM [2] [%],inhibition at 10 µM [2] [%],IC50 [1] [nM],IC50 [2] [nM]
"Fc1ccc(O[C@@H]2CCCN(CC3CCc4ccccc43)C2)cc1 (stereo partly drawn) [Example 253, (3R)-1-((2,3-dihydro-1H-inden-1-yl)methyl)-3-(4-fluorophenoxy) piperidine]",21,–,1170,–
